SMILES strings stand for the structures. Counter-ions that a name gives are not always drawn. Where only a bound is given, the exact number is not on record here.

The text below walks through data of patent publication US11999746B2, “Compounds” (GlaxoSmithKline Intellectual Property Development Limited, priority 2014, dated 2024).

For this assay, the target named is T1, recombinant human Lp-PLA2 (Homo sapiens, UniProt Q13093).
T1 sequence (Q13093 22-441): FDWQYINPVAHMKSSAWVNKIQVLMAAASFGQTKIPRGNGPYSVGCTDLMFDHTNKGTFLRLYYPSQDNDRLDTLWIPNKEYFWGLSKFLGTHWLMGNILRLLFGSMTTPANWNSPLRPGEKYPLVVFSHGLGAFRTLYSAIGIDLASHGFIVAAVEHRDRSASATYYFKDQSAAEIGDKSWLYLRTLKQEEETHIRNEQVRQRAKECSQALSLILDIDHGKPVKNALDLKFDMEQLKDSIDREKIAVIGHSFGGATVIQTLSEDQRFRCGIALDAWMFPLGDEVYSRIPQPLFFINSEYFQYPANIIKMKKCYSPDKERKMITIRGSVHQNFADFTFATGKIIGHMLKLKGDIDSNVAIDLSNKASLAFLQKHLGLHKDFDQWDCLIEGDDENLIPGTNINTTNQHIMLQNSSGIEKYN
In words: (1b) hrThioPAF assay, recombinant human Lp-PLA2. The class given is biochemical. The conditions noted are these: Examples 266-412 were tested here, one experiment or average of multiple experiments, read-out: rhLp-PLA2 (pIC50) (converted). An excerpt: 1-O-Hexadecyl-2-deoxy-2-thio-S-acetyl-sn-glyceryl-3-phosphorylcholine (2-thio-PAF) is a substrate for PAF-hydrolases (PAF-AH) commercially available from Cayman Chemical. Upon cleavage with PAF-AH, the free thiol is released at the sn-2 position and can then react with 7-diethylamino-3-(4′-maleimidylphenyl)-4-methylcoumarin (CPM) a thiol-reactive coumarin. This reaction (Michael addition) results in an increase in fluorescence. Inhibitors of Lp-PLA2 therefore prevent this cleavage and no fluorescent increase is observed.
The Thio-PAF assay was run as an unquenched 20 μL assay. The source plate containing the compounds to be tested was prepared by making 1:3 (by volume) serial dilution of the compounds within DMSO on 384-well microplate. Then, 5 μL of the compounds on compound source plate were transferred into 384 well Greiner 784076 (black) plates using STAR+(Hamilton) liquid dispenser. 10 μL of recombinant human Lp-PLA2 enzyme (20 pM rhLp-PLA2 in assay buffer of 50 mM HEPES, pH 7.4, 150 mM NaCl, 1 mM CHAPS) was added to each well of the plate. 5 μL of substrate comprising 40 μM 2-thio-PAF [from ethanol stock], 40 μM CPM [from a DMSO stock] and 400 μM NEM (N-ethylmaleimide) [made fresh daily in DMSO] in assay buffer (50 mM HEPES, pH 7.4, 150 mM NaCl, 1 mM CHAPS) was added to 384 well Greiner 784076 black plates. Plates were vortexed for 10 sec. The plate was covered to protect it from light and incubated for 20 min at 25° C. The plates were read for fluorescence intensity at ex: 380 nm/em: 485 nm using Envision plate reader (Perkin Elmer). Raw data were transferred to Excel software and pIC50 data, curve and QC analysis was conducted by using XL fit module in Excel.
As to `N#Cc1cc(CNc2cc3n(c(=O)n2)CC2CNC(=O)CN32)ccc1F` (stereo not drawn) [Example E354, 5-(((3,9-dioxo-2,3,4,9,11,11a-hexahydro-1H-pyrazino[1′,2′:3,4]imidazo[1,2-c]pyrimidin-7-yl)amino)methyl)-2-fluorobenzonitrile, trifluoroacetic acid salt], the IC50 is no more than 10 µM.

As to `N#Cc1cc(COc2cc3n(c(=O)n2)C[C@H]2C[C@@H](N)CN32)ccc1F` [Example E389, 5-((((7R,8aR)-7-Amino-1-oxo-1,6,7,8,8a,9-hexahydropyrrolo[1′,2′:3,4]imidazo[1,2-c]pyrimidin-3-yl)oxy)methyl)-2-fluorobenzonitrile], the IC50 is no more than 10 µM.

Regarding `CCOC(=O)C(C)N1CCN2c3cc(OCc4ccc(F)c(F)c4)nc(=O)n3CC2C1` (single isomer, unassigned) [Example E326, Ethyl 2-(7-((3,4-difluorobenzyl)oxy)-9-oxo-3,4,11,11a-tetrahydro-1H-pyrazino[1′,2′:3,4]imidazo[1,2-c]pyrimidin-2(9H)-yl)propanoate], the IC50 was no more than 10 µM.

In the case of `O=c1nc(OCc2cccc(F)c2F)cc2n1CC1CSCCN21` (stereo not drawn) [Example E361, 7-((2,3-Difluorobenzyl)oxy)-3,4,11,11a-tetrahydropyrimido[6′,1′:2,3]imidazo[5,1-c][1,4] thiazin-9(1H)-one], the IC50 was no more than 10 µM.

As to `O=C(O)C(C1CC1)N1CCN2c3cc(OCc4ccc(F)c(F)c4)nc(=O)n3CC2C1` (stereo not drawn) [Example E328, 2-Cyclopropyl-2-(7-((3,4-difluorobenzyl)oxy)-9-oxo-3,4,11,11a-tetrahydro-1H-pyrazino[1′,2′:3,4]imidazo[1,2-c]pyrimidin-2(9H)-yl)acetic acid, trifluoroacetic acid Salt], the IC50 is no more than 10 µM.

With `O=c1nc(OCc2cccc(F)c2F)cc2n1CC1CNCCN21` (stereo not drawn) [Example E268, 7-((2,3-Difluorobenzyl)oxy)-3,4,11,11a-tetrahydro-1H-pyrazino[1′,2′:3,4] imidazo [1,2-c]pyrimidin-9(2H)-one], the IC50 was no more than 10 µM.

On to `N#Cc1cc(COc2cc3n(c(=O)n2)C[C@H]2CC(O)CN32)ccc1F` (stereo in doubt) [Example E381, 2-Fluoro-5-((((7R,8aR)-7-hydroxy-1-oxo-1,6,7,8,8a,9-hexahydropyrrolo[1′,2′:3,4]imidazo[1,2-c]pyrimidin-3-yl)oxy)methyl)benzonitrile], for which the IC50 is no more than 10 µM.

With `O=c1nc(OCc2ccc(F)c(Br)c2)cc2n1CC1CNCCN21` (stereo not drawn) [Example E276, 7-((3-Bromo-4-fluorobenzyl)oxy)-3,4,11,11a-tetrahydro-1H-pyrazino[1′,2′:3,4] imidazo [1,2-c]pyrimidin-9(2H)-one], the IC50 is no more than 10 µM.

On to `CS(=O)(=O)N1CCN2c3cc(NCc4ccc(F)c(C#N)c4)nc(=O)n3CC2C1` (stereo not drawn) [Example E312, 2-Fluoro-5-(((2-(methylsulfonyl)-9-oxo-2,3,4,9,11,11a-hexahydro-1H-pyrazino[1′,2′:3,4]imidazo[1,2-c]pyrimidin-7-yl)amino)methyl)benzonitrile], for which the IC50 is no more than 10 µM.

Turning to `O=c1nc(OCc2cccc(F)c2F)cc2n1CC1C[S+]([O-])CCN21` (stereo not drawn) [Example E362, 7-((2,3-Difluorobenzyl)oxy)-3,4,11,11a-tetrahydropyrimido[6′,1′:2,3]imidazo[5,1-c][1,4] thiazin-9(1H)-one 2-oxide], the IC50 is no more than 10 µM.

Turning to `N#Cc1cc(COc2cc3n(c(=O)n2)CC2CNCCN32)ccc1OC1CCC1` (stereo not drawn) [Example E316, 2-Cyclobutoxy-5-(((9-oxo-2,3,4,9,11,11a-hexahydro-1H-pyrazino[1′,2′:3,4]imidazo[1,2-c]pyrimidin-7-yl)oxy)methyl)benzonitrile], the IC50 was no more than 10 µM.

Consider `CS(=O)(=O)N1CCN2c3cc(NCc4cccc(F)c4F)nc(=O)n3CC2C1` (stereo not drawn) [Example E311, 7-((2,3-Difluorobenzyl)amino)-2-(methylsulfonyl)-3,4,11,11a-tetrahydro-1H-pyrazino[1′,2′:3,4]imidazo[1,2-c]pyrimidin-9(2H)-one], for which the IC50 is no more than 10 µM.
